Source: patent US20060246149A1, “Antimicrobial pigments” (priority 2003, published 2006)

How the values were obtained:
Test in all cases: challenge test, germ count by Agar plates method
Format in all cases: cell-based
Conditions in all cases: 8% aqueous suspension
[1] = test system: Staphylococcus aureus ATCC 6538
Experimental: (§1) A standard procedure to measure the anti-microbial activity of substances was used (challenge tests). A suspension of test organisms (10^5 to 10^6 germs/ml) is inoculated into a recipient containing already the substance to be tested. Samples of the inoculated suspension are taken and the number of germs is measured thanks to the Agar plates method. Germ counts is performed at t=0, t=24 h after the inoculation, t=48 h after the inoculation, t=7 days after the inoculation, t=14 days after the inoculation.
(§2) Sterile water containing 8% w/w of treated and untreated carriers were each investigated.

[2] = test system: Escheria coli ATCC8739
Experimental: as §1, §2

[3] = test system: Pseudomonas aeruginosa ATCC 9027
Experimental: as §1, §2

[4] = test system: Candida albicans ATCC 10231
Experimental: as §1, §2

silver oxide [0.02% Ag2O]
0 germs/ml: Germs Number/ml after 24 h ([1]; 24 h) | Germs Number/ml after 48 h ([1]; 48 h) | Germs Number/ml after 14 d ([1]; 14 d) | Germs Number/ml after 24 h ([2]; 24 h) | Germs Number/ml after 48 h ([2]; 48 h) | Germs Number/ml after 7 d ([2]; 7 d) | Germs Number/ml after 14 d ([2]; 14 d) | Germs Number/ml after 24 h ([3]; 24 h) | Germs Number/ml after 48 h ([3]; 48 h) | Germs Number/ml after 7 d ([3]; 7 d) | Germs Number/ml after 14 d ([3]; 14 d) | Germs Number/ml after 48 h ([4]; 48 h) | Germs Number/ml after 7 d ([4]; 7 d) | Germs Number/ml after 14 d ([4]; 14 d)
